Source: ChEMBL document CHEMBL4725294, “Centrally Active Multitarget Anti-Alzheimer Agents Derived from the Antioxidant Lead CR-6” (J Med Chem, 2020)
The source made the active and inactive calls. No cut-off for these calls is given here.

Assays:
[1] = target: T1, Acetylcholinesterase (Homo sapiens, UniProt P22303); assay: Potency index, ratio of tacrine IC50 to test compound IC50 for recombinant human AChE expressed in HEK293 cells; type: cell-based
[2] = target: T2, Cholinesterase (Homo sapiens, UniProt P06276); assay: Potency index, ratio of tacrine IC50 to test compound IC50 for recombinant human BChE
T2 sequence (P06276 whole entry): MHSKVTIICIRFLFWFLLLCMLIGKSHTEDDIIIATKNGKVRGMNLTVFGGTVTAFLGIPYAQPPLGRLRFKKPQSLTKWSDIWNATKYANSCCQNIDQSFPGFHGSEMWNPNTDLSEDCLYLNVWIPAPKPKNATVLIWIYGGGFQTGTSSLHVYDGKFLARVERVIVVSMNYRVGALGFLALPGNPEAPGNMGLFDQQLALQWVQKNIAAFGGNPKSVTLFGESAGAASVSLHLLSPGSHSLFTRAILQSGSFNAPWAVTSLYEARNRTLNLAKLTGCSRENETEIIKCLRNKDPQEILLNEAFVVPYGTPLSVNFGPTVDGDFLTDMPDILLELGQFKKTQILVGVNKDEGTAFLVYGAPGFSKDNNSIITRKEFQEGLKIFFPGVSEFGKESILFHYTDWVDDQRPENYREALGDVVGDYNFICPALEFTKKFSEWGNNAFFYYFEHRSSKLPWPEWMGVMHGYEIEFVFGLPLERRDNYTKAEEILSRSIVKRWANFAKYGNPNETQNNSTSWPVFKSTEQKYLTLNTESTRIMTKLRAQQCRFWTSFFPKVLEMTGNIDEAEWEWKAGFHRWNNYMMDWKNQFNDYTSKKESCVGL

[3] = target: T3, Beta-secretase 1 (Homo sapiens, UniProt P56817); assay: Inhibition human BACE1 expressed in baculovirus expression system using Panvera peptide as substrate measured after 60 mins by fluorescence assay
T3 sequence (P56817 whole entry): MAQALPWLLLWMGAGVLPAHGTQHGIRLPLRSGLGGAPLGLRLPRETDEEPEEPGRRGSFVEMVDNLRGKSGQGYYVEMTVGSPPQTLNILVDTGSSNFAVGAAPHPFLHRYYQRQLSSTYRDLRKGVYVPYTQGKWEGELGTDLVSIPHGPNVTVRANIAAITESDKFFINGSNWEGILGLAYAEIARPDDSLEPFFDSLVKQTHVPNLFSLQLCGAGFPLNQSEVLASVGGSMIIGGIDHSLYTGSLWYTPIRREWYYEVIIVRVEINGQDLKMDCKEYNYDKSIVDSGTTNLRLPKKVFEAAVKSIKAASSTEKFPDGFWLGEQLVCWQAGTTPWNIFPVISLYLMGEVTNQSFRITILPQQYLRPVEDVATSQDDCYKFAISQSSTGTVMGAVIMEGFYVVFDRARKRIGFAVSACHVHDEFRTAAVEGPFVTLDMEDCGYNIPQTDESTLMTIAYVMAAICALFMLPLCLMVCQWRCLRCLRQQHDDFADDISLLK

[4] = target: T3, Beta-secretase 1; assay: Inhibition human BACE1 expressed in baculovirus expression system at 5 uM using Panvera peptide as substrate measured after 60 mins by fluorescence assay relative to control; details: 1 h; for inhibition (INH): 5 µM
[5] = target: T1, Acetylcholinesterase
Description: (§1) Inhibition of recombinant human AChE expressed in HEK293 cells using acetylthiocholine iodide as substrate preincubated for 15 mins followed by substrate addition by Ellman's method

[6] = target: T2, Cholinesterase
Description: (§2) Inhibition of recombinant human BChE using butyrylthiocholine iodide as substrate preincubated for 15 mins followed by substrate addition by Ellman's method

[7] = in vitro; details: PAMPA
Description: Permeability of compound in PBS/EtOH buffer (7:3) PAMPA-BBB assay

[8] = Drug level in human liver microsomes treated with N-{8-[(6-Chloro-1,2,3,4-tetrahydroacridin-9-yl)amino]octyl}-2-(6-hydroxy-7-methoxy-2-methylchroman-2-yl)acetamide at 5 uM measured up to 60 mins by UPLC-MS/MS analysis; type: ADME, Microsome; details: 1 h
[9] = Drug level in mouse liver microsomes treated with N-{8-[(6-Chloro-1,2,3,4-tetrahydroacridin-9-yl)amino]octyl}-2-(6-hydroxy-7-methoxy-2-methylchroman-2-yl)acetamide at 5 uM measured up to 60 mins by UPLC-MS/MS analysis; type: ADME, Microsome; details: 1 h
[10] = Drug level in rat liver microsomes treated with N-{8-[(6-Chloro-1,2,3,4-tetrahydroacridin-9-yl)amino]octyl}-2-(6-hydroxy-7-methoxy-2-methylchroman-2-yl)acetamide at 5 uM measured up to 60 mins by UPLC-MS/MS analysis; type: ADME, Microsome; details: 1 h
[11] = target: T1, Acetylcholinesterase; assay: Inhibition of recombinant human AChE expressed in HEK293 cells at 100 uM using acetylthiocholine iodide as substrate preincubated for 15 mins followed by substrate addition by Ellman's method
[12] = target: T2, Cholinesterase; assay: Inhibition of recombinant human BChE at 100 uM using butyrylthiocholine iodide as substrate preincubated for 15 mins followed by substrate addition by Ellman's method
[13] = target: T1, Acetylcholinesterase; assay: Mixed inhibition of recombinant human AChE expressed in HEK293 cells assessed as dissociation constant for enzyme-inhibitor complex using varying levels of acetylthiocholine iodide as substrate preincubated for 15 mins followed by substrate addition by Line-weaver Burk plot analysis
[14] = target: T1, Acetylcholinesterase; assay: Mixed inhibition of recombinant human AChE expressed in HEK293 cells assessed as dissociation constant for enzyme-substrate-inhibitor complex using varying levels of acetylthiocholine iodide as substrate preincubated for 15 mins followed by substrate addition by Line-weaver Burk plot analysis
[15] = target: Acetylcholinesterase (Electrophorus electricus, UniProt O42275); assay: Displacement of propidium iodide from PAS region of electric eel AChE by fluorescence assay
Acetylcholinesterase (Electrophorus electricus, UniProt O42275), sequence (O42275 whole entry): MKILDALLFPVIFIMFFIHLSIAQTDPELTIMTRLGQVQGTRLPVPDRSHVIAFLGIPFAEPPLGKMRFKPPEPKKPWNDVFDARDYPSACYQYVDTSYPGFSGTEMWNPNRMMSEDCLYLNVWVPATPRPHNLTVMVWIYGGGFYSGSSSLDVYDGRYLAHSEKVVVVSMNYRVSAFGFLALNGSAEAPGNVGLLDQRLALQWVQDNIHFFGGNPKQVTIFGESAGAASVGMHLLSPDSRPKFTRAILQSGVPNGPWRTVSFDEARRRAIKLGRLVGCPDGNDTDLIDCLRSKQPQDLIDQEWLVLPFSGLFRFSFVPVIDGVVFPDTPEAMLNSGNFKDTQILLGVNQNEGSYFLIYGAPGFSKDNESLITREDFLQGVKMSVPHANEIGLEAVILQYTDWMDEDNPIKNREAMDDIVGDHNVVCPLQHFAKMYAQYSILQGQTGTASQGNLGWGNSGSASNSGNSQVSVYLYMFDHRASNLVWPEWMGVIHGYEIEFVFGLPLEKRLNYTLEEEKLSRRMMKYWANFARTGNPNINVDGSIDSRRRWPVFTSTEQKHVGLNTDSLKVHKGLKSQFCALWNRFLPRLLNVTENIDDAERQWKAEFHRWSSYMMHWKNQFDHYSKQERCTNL

[16] = target: T1, Acetylcholinesterase; details: hek293
Description: as §1

[17] = target: T2, Cholinesterase; remark: listed apart in the source
Description: as §2

T1 sequence (P22303 whole entry): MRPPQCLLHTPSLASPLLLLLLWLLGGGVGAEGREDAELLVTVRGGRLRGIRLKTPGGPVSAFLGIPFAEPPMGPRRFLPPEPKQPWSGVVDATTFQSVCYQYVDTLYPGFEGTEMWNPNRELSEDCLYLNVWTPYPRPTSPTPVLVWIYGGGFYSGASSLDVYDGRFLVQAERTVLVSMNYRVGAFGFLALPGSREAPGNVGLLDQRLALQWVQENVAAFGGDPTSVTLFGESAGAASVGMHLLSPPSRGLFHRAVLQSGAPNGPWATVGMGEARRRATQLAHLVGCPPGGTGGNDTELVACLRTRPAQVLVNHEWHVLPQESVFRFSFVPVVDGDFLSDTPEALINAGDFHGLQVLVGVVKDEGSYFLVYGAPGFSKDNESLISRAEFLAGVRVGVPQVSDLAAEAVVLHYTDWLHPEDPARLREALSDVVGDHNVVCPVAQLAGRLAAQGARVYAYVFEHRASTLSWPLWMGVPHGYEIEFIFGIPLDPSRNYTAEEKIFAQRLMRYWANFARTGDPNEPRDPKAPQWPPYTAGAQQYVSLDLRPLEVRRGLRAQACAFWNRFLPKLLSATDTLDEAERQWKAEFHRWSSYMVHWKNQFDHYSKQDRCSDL

In the case of COc1cc2c(cc1O)CCC(C)(CC(=O)NCCCCCCCNc1c3c(nc4ccccc14)CCCC3)O2 (configuration not stated), the Ratio IC50 [1] is reported as less than 5, the Ratio IC50 [2] is reported as 7 and the IC50 [3] is reported as “Not Active”. The “inhibition (INH)” value [4] was “Not Active”, the IC50 [5] was 111 nM and the IC50 [6] was 4.28 nM. For the same compound, the Papp [7] was 6.6 ×10⁻⁶ cm/s.
Compound COc1cc2c(cc1OCc1ccccc1)CCC(C)(CC(=O)NCCCCCCNc1c3c(nc4cc(Cl)ccc14)CCCC3)O2 (configuration not stated) has an IC50 ([3]; read-out: IC50) of 18000 nM, an IC50 [5] of 11 nM and an IC50 [6] of 201 nM. The Papp [7] was 10.7 ×10⁻⁶ cm/s.
With COc1cc2c(cc1O)CCC(C)(CC(=O)NCCCCCCCCNc1c3c(nc4ccccc14)CCCC3)O2 (configuration not stated) the Ratio IC50 [1] was less than 5, the Ratio IC50 [2] was 7 and the IC50 [3] was “Not Active”. The “inhibition (INH)” value [4] was “Not Active”, the IC50 [5] was 69.8 nM and the IC50 [6] was 5.33 nM. It also gave a Papp [7] of 7.3 ×10⁻⁶ cm/s.
For COc1cc2c(cc1O)CCC(C)(CC(=O)NCCCCCCNc1c3c(nc4ccccc14)CCCC3)O2 (configuration not stated), the Ratio IC50 [1] was less than 5, the Ratio IC50 [2] was 7 and the IC50 [3] was “Not Active”. The “inhibition (INH)” value [4] was “Not Active”, the IC50 [5] was 275 nM and the IC50 [6] was 4.99 nM. For the same compound, the Papp [7] was 4.3 ×10⁻⁶ cm/s.
With COc1cc2c(cc1O)CCC(C)(CCNCCCCCCCNc1c3c(nc4cc(Cl)ccc14)CCCC3)O2 (configuration not stated) the Ratio IC50 [2] was 2, the IC50 [3] was “Not Active” and the “inhibition (INH)” value [4] was “Not Active”. The IC50 [5] was 0.44 nM, the IC50 [6] was 17.4 nM and the Papp [7] was 10.3 ×10⁻⁶ cm/s.
With COc1cc2c(cc1O)CCC(C)(CC(=O)NCCCCCCCCCNc1c3c(nc4ccccc14)CCCC3)O2 (configuration not stated) the Ratio IC50 [1] was less than 5, the Ratio IC50 [2] was 7 and the inhibition at 5 µM [4] was 6.75%. It also gave an IC50 [5] of 57.8 nM, an IC50 [6] of 5.36 nM and a Papp [7] of 8.9 ×10⁻⁶ cm/s.
With COc1cc(O)c(CCC(C)(O)CC(=O)NCCCCCCCCNc2c3c(nc4cc(Cl)ccc24)CCCC3)cc1O (configuration not stated) the Drug metabolism [8] was “Metabolite_Detected”, the Drug metabolism [9] was “Metabolite_Detected” and the Drug metabolism [10] was “Metabolite_Detected”.
Compound COc1cc2c(cc1OCc1ccccc1)CCC(C)(CC(=O)NCCCCCCCNc1c3c(nc4cc(Cl)ccc14)CCCC3)O2 (configuration not stated) has an IC50 ([3]; read-out: IC50) of 12500 nM, an IC50 [5] of 6.99 nM and an IC50 [6] of 51 nM. It also gave a Papp [7] of 11.5 ×10⁻⁶ cm/s.
With COc1cc2c(cc1O)CCC(C)(CCC(=O)NCCCCCCCCNc1c3c(nc4cc(Cl)ccc14)CCCC3)O2 (configuration not stated) the IC50 [3] was “Not Active”, the “inhibition (INH)” value [4] was “Not Active” and the IC50 [5] was 6.23 nM. The IC50 [6] was 148 nM and the Papp [7] was 8.7 ×10⁻⁶ cm/s.
In the case of COc1cc2c(cc1O)CCC(C)(CC(=O)NCCCCCCCCCNc1c3c(nc4cc(Cl)ccc14)CCCC3)O2 (configuration not stated), the IC50 [3] is reported as “Not Active”, the “inhibition (INH)” value [4] is reported as “Not Active” and the IC50 [5] is reported as 2.05 nM. It also gave an IC50 [6] of 168 nM and a Papp [7] of 8.2 ×10⁻⁶ cm/s.
For COc1cc2c(cc1O)CCC(C)(CCNCCOCCOCCNc1c3c(nc4cc(Cl)ccc14)CCCC3)O2 (configuration not stated), the inhibition at 5 µM [4] was 19.9%, the IC50 [5] was 8.35 nM and the IC50 [6] was 180 nM. It also gave a Papp [7] of 9.7 ×10⁻⁶ cm/s.
With COc1cc2c(cc1O)CCC(C)(CC(=O)NCCOCCOCCNc1c3c(nc4cc(Cl)ccc14)CCCC3)O2 (configuration not stated) the IC50 [3] was “Not Active”, the “inhibition (INH)” value [4] was “Not Active” and the IC50 [5] was 47.9 nM. The IC50 [6] was 1840 nM and the Papp [7] was 7 ×10⁻⁶ cm/s.
For COc1cc2c(cc1O)CCC(C)(CCC(=O)NCCCCCCNc1c3c(nc4cc(Cl)ccc14)CCCC3)O2 (configuration not stated), the IC50 [3] was “Not Active”, the “inhibition (INH)” value [4] was “Not Active” and the IC50 [5] was 3.8 nM. It also gave an IC50 [6] of 102 nM and a Papp [7] of 7.8 ×10⁻⁶ cm/s.
With COC1=CC(=O)C(CCC(C)(O)CC(=O)NCCCCCCCCNc2c3c(nc4cc(Cl)ccc24)CCCC3)=CC1=O (configuration not stated) the Drug metabolism [8] was “Metabolite_Detected”, the Drug metabolism [9] was “Metabolite_Detected” and the Drug metabolism [10] was “Metabolite_Detected”.
With Nc1c2c(nc3cc(Cl)ccc13)CCCC2 the Drug metabolism [8] was “Metabolite_Detected”, the Drug metabolism [9] was “Metabolite_Detected” and the Drug metabolism [10] was “Metabolite_Detected”. For the same compound, the Papp [7] was 26.1 ×10⁻⁶ cm/s.
For COc1cc2c(cc1O)CCC(C)(CCN)O2 (configuration not stated), the inhibition [11] was “inactive”, the inhibition [12] was “inactive” and the IC50 [5] was 101000 nM. The IC50 [6] was 23200 nM and the Papp [7] was 1 ×10⁻⁶ cm/s.
For COc1cc2c(cc1O)CCC(C)(CC(=O)NCCCCCCCNc1c3c(nc4cc(Cl)ccc14)CCCC3)O2 (configuration not stated), the IC50 [3] was “Not Active”, the “inhibition (INH)” value [4] was “Not Active” and the IC50 [5] was 5.43 nM. The IC50 [6] was 79.1 nM and the Papp [7] was 9.7 ×10⁻⁶ cm/s.
COc1cc2c(cc1O)CCC(C)(CCNCCCCCCCCCNc1c3c(nc4cc(Cl)ccc14)CCCC3)O2 (configuration not stated) gave a Ratio IC50 [2] of 2, an inhibition at 5 µM [4] of 28.1% and an IC50 [5] of 0.27 nM. For the same compound, the IC50 [6] was 18.3 nM and the Papp [7] was 10.1 ×10⁻⁶ cm/s.
With COC1=CC(=O)C2(CCC(C)(CC(=O)NCCCCCCCCNc3c4c(nc5cc(Cl)ccc35)CCCC4)O2)CC1=O (configuration not stated) the Drug metabolism [8] was “Metabolite_Detected”, the Drug metabolism [9] was “Metabolite_Detected” and the Drug metabolism [10] was “Metabolite_Detected”.
Work on COc1cc2c(cc1O)CCC(C)(CCNCCCCCCCCNc1c3c(nc4cc(Cl)ccc14)CCCC3)O2 (configuration not stated) yielded a Ratio IC50 [2] of 2, a Ki [13] of 0.132 nM and a Ki [14] of 0.258 nM. It also gave a Kd [15] of 2030 nM, an inhibition at 5 µM [4] of 24.8% and an IC50 [5] of 0.12 nM. It also gave an IC50 [6] of 13.4 nM and a Papp [7] of 12.5 ×10⁻⁶ cm/s.
COc1cc2c(cc1OCc1ccccc1)CCC(C)(CC(=O)NCCCCCCCCCNc1c3c(nc4cc(Cl)ccc14)CCCC3)O2 (configuration not stated) showed an IC50 ([3]; read-out: IC50) of 7190 nM, an IC50 [5] of 7.89 nM and an IC50 [6] of 30.6 nM. It also gave a Papp [7] of 10.4 ×10⁻⁶ cm/s.
In the case of COc1cc2c(cc1O)CCC(C)(CCC(=O)NCCCCCCCNc1c3c(nc4cc(Cl)ccc14)CCCC3)O2 (configuration not stated), the inhibition at 5 µM [4] is reported as 14%, the IC50 [5] is reported as 7.94 nM and the IC50 [6] is reported as 187 nM. It also gave a Papp [7] of 8.3 ×10⁻⁶ cm/s.
With COc1cc2c(cc1O)CCC(C)(CC(=O)O)O2 (configuration not stated) the IC50 [16] was “Not Active”, the IC50 [17] was “Not Active” and the Papp [7] was 0.4 ×10⁻⁶ cm/s.
